Some results are limits rather than exact numbers.

The target of this test is T1, WIZ protein (HiBit-WIZ fusion protein) (Homo sapiens, UniProt O95785+Q96SW2).
T1 construct: expressed in transfected cells
The test is described as follows: Quantification of WIZ protein levels in HiBit tag fusion protein assay (WIZ HiBit assay in 293T cells). It is filed as cell-based. To be noted: for Dmax at 25 µM: 100 − Amax; for Dmax at 25 µM / remaining activity at 25 µM: 293T cells; for remaining activity at 25 µM: DMSO-normalized, curve-fitted percentage of WIZ-HiBit remaining at 25 uM; for DC50: WIZ HiBit assay in 293T cells, 10-point, 5-fold dose response, highest concentration 25 μM, about 18 hours, read-out: WIZ AC50. Also on record: remaining activity / Dmax: dose or concentration left out as unconfirmed. The method, boiled down:
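HiBit-tagged WIZ (N-terminal tag, HSVTK promoter) stably expressed single-copy in 293T cells; 10-point 1:5 compound series, top 25 μM, ~18 h at 37 °C. Lytic HiBit/LgBit luminescence read; Amax = curve-fitted % WIZ-HiBit remaining at 25 μM, DMSO normalized to 100%.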
In general terms: The HiBiT peptide binds its large partner to form an active luciferase.

The mark [1] stands for this setting: HEK-293T, read-out: % degradation of WIZ (100 − Amax).

T1 sequence (O95785 whole entry, the tested form may be a part): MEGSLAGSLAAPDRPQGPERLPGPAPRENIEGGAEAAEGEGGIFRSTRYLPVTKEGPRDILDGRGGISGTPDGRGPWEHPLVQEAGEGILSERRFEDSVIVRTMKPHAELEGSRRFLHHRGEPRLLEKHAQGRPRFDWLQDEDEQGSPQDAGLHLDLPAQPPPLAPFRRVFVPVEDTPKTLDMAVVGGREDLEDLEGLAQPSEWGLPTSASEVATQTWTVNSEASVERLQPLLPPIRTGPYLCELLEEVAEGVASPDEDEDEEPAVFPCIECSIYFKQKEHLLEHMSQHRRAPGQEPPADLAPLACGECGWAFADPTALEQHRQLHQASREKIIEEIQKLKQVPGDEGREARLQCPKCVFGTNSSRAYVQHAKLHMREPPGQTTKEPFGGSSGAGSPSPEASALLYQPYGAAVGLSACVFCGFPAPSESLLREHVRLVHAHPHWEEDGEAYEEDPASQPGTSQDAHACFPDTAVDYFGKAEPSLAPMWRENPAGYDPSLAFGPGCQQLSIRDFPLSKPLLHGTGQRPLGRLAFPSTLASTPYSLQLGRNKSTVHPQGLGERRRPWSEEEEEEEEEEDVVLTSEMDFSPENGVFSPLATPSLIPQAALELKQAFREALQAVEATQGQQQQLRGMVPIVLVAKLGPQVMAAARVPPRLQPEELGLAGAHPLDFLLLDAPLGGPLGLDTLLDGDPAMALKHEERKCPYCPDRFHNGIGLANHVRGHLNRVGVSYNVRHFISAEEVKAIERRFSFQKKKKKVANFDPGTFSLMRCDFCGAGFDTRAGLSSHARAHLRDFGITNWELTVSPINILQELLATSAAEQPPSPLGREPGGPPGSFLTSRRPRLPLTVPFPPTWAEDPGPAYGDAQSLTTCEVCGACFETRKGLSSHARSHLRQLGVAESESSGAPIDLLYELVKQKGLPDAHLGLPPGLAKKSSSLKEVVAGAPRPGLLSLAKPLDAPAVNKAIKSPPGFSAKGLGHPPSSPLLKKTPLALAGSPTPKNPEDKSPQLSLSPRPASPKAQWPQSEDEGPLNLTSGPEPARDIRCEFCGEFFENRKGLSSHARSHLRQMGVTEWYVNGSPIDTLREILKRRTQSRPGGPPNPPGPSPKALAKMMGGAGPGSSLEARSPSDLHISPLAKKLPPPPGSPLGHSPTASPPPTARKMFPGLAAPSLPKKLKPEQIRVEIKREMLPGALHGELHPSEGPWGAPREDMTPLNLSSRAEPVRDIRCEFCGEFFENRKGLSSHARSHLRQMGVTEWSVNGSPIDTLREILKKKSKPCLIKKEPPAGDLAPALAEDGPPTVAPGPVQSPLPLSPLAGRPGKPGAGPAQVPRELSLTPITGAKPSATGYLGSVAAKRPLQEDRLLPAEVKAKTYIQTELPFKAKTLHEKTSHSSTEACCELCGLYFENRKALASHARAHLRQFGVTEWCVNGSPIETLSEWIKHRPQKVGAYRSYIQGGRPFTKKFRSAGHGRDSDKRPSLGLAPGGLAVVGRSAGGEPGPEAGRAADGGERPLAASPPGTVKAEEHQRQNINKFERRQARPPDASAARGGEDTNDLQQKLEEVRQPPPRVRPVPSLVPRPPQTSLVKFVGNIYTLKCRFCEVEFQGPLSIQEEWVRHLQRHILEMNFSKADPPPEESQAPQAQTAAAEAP
T1 sequence (Q96SW2 whole entry, the tested form may be a part): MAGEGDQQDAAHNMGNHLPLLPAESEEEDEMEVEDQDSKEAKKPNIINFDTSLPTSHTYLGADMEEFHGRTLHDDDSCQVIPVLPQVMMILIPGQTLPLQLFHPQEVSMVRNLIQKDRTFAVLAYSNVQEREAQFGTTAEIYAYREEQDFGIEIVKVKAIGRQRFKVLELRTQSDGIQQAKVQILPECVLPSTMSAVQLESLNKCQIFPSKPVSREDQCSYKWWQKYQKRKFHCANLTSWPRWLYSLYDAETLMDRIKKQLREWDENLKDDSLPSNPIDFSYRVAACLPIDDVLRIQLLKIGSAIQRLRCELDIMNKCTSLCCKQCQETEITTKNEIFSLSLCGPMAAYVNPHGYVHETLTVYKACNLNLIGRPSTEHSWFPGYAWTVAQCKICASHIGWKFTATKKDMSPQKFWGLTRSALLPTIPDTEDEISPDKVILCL
T1 sequence (Q16531 whole entry partner, the tested form may be a part): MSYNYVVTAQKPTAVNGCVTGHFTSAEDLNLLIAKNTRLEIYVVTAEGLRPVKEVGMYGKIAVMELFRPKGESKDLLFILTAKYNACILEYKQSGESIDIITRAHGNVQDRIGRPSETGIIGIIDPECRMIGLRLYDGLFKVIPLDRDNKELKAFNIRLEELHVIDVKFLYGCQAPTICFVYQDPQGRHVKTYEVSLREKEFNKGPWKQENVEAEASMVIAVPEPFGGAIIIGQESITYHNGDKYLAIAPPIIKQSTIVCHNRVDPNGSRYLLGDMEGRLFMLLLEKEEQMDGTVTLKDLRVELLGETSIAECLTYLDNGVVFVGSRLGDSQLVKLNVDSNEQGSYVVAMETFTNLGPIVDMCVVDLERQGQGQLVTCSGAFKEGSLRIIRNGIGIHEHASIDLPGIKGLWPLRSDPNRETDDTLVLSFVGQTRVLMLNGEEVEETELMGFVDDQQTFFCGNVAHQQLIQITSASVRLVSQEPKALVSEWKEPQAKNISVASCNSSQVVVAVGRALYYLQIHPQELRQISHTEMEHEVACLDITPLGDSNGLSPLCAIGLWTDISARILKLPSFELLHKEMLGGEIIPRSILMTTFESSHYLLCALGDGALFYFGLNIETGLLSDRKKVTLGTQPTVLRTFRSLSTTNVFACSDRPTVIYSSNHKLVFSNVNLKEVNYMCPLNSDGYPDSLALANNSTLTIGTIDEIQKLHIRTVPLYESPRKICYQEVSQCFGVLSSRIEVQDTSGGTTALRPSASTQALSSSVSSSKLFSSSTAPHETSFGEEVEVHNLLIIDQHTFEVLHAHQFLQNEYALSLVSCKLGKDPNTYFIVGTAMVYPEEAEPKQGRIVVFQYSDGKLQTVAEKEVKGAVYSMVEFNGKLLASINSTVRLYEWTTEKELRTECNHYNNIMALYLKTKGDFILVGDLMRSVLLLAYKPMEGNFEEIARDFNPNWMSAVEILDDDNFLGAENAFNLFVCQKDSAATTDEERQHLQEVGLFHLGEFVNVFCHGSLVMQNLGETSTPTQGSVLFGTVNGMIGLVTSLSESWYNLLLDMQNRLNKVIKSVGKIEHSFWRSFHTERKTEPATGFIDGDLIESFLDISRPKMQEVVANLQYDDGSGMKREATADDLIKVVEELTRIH

`O=C1CCN(c2cnn3ccc(CC4CCN(S(=O)(=O)c5ccccc5)CC4)cc23)C(=O)N1` [Example 91]: the DC50 turned out to be 150 nM. Further, the Dmax at 25 µM under setting [1] worked out at 74%. Also, the remaining activity at 25 µM (HEK-293T, read-out: WIZ Amax) turned out to be 26%.

Regarding `O=C1CCN(c2cnn3ccc(CN4C[C@H]5C[C@@H]4CN5Cc4cccnc4)cc23)C(=O)N1` [Example 235, 1-(5-(((1R,4R)-5-(pyridin-3-ylmethyl)-2,5-diazabicyclo[2.2.1]heptan-2-yl)methyl)pyrazolo[1,5-a]pyridin-3-yl)dihydropyrimidine-2,4(1H,3H)-dione], the DC50 is 3280 nM. For the same compound, the Dmax at 25 µM under setting [1] came out at 35%. Besides, the remaining activity at 25 µM (HEK-293T, read-out: WIZ Amax) was found to be 65%.

For `C[C@H]1CN(CC2CCOCC2)CCN1Cc1ccn2ncc(N3CCC(=O)NC3=O)c2c1` [Example 223], the DC50 amounted to 877 nM. Also, under setting [1], the Dmax at 25 µM was 51%. Also, the remaining activity at 25 µM (HEK-293T, read-out: WIZ Amax) came to 49%.

As for `C[C@H]1CN(Cc2ccn3ncc(N4CCC(=O)NC4=O)c3c2)CCN1CC1CCCCC1` [Example 192, (S)-1-(5-((4-(cyclohexylmethyl)-3-methylpiperazin-1-yl)methyl)pyrazolo[1,5-a]pyridin-3-yl)dihydropyrimidine-2,4(1H,3H)-dione], the DC50 worked out at 19 nM. For the same compound, under setting [1], the Dmax at 25 µM was 86%. In addition, the remaining activity at 25 µM (HEK-293T, read-out: WIZ Amax) was determined as 14%.

As for `O=C1CCN(c2cnn3ccc(CC4(F)CCN(CC5CCCCC5)CC4)cc23)C(=O)N1` [Example 123, 1-(5-((1-(cyclohexylmethyl)-4-fluoropiperidin-4-yl)methyl)pyrazolo[1,5-a]pyridin-3-yl)dihydropyrimidine-2,4(1H,3H)-dione], the DC50 worked out at 95 nM. Moreover, the Dmax at 25 µM under setting [1] came to 68%. In addition, the remaining activity at 25 µM (HEK-293T, read-out: WIZ Amax) stood at 32%.

Consider `CC(C)CN1CC[C@@H](Cc2ccn3ncc(-n4ccc(=O)[nH]c4=O)c3c2)C[C@@H]1C` [Example 346, 1-(5-(((2S,4R)-1-isobutyl-2-methylpiperidin-4-yl)methyl)pyrazolo[1,5-a]pyridin-3-yl)pyrimidine-2,4(1H,3H)-dione], for which the DC50 turned out to be 108 nM. Further, under setting [1], the Dmax at 25 µM worked out at 87%. Moreover, the remaining activity at 25 µM (HEK-293T, read-out: WIZ Amax) turned out to be 13%.

For the compound `C[C@H]1C[C@H](Cc2ccn3ncc(N4CCC(=O)NC4=O)c3c2)CCN1S(=O)(=O)C1CC1` [Example 286], the DC50 was found to be 31 nM. In addition, the Dmax at 25 µM under setting [1] came to 79%. For the same compound, the remaining activity at 25 µM (HEK-293T, read-out: WIZ Amax) was 20%.

As to `O=C1CCN(c2cnn3ccc(CN4CCN(CC(F)(F)C(F)F)CC4)cc23)C(=O)N1` [Example 173], the DC50 was 771 nM. In addition, the Dmax at 25 µM under setting [1] is 42%. Where the note is “HEK-293T, read-out: WIZ Amax”, the remaining activity at 25 µM was found to be 58%.

Turning to `CO[C@H]1C[C@H](CN2CCN(Cc3ccn4ncc(N5CCC(=O)NC5=O)c4c3)C[C@@H]2C)C1` [Example 316, 1-(5-(((S)-4-(((1r,3S)-3-methoxycyclobutyl)methyl)-3-methylpiperazin-1-yl)methyl)pyrazolo[1,5-a]pyridin-3-yl)dihydropyrimidine-2,4(1H,3H)-dione], the DC50 came to 61 nM. The Dmax at 25 µM under setting [1] was determined as 83%. Where the note is “HEK-293T, read-out: WIZ Amax”, the remaining activity at 25 µM was 17%.

Take `O=C1CCN(c2cnn3ccc(CC4CCN(CC5CCNCC5)CC4)cc23)C(=O)N1` [Example 63]: the DC50 is above 25000 nM. Besides, the Dmax at 25 µM under setting [1] was found to be 36%. Further, under “HEK-293T, read-out: WIZ Amax”, the remaining activity at 25 µM came out at 64%.

`O=C1CCN(c2cnn3ccc(CC4CCN(Cc5ccncc5)CC4)cc23)C(=O)N1` [Example 28, 1-(5-((1-(pyridin-4-ylmethyl)piperidin-4-yl)methyl)pyrazolo[1,5-a]pyridin-3-yl)dihydropyrimidine-2,4(1H,3H)-dione]: the DC50 was found to be 105 nM. Under setting [1], the Dmax at 25 µM stood at 75%. Further, the remaining activity at 25 µM (HEK-293T, read-out: WIZ Amax) came out at 25%.

For `O=C1CCN(c2cnn3ccc(CC4CCNCC4)cc23)C(=O)N1` [Example 108, 1-(5-(piperidin-4-ylmethyl)pyrazolo[1,5-a]pyridin-3-yl)dihydropyrimidine-2,4(1H,3H)-dione], the DC50 is 1340 nM. The Dmax at 25 µM under setting [1] is 34%. For the same compound, the remaining activity at 25 µM (HEK-293T, read-out: WIZ Amax) was found to be 66%.

Regarding `O=C1CCN(c2cnn3ccc(CC4CCN(S(=O)(=O)CC5CCCCC5)CC4)cc23)C(=O)N1` [Example 80, 1-(5-((1-((cyclohexylmethyl)sulfonyl)piperidin-4-yl)methyl)pyrazolo[1,5-a]pyridin-3-yl)dihydropyrimidine-2,4(1H,3H)-dione], the DC50 turned out to be 49 nM. In addition, the Dmax under setting [1] is 88%. The remaining activity (HEK-293T, read-out: WIZ Amax) stood at 12%.

Consider `O=C1CCN(c2cnn3ccc(CN4CCN5[C@@H](CCS5(=O)=O)C4)cc23)C(=O)N1` [Example 315, (S)-1-(5-((1,1-dioxidohexahydro-5H-isothiazolo[2,3-a]pyrazin-5-yl)methyl)pyrazolo[1,5-a]pyridin-3-yl)dihydropyrimidine-2,4(1H,3H)-dione], for which the DC50 was 1020 nM. In addition, the Dmax at 25 µM under setting [1] came to 53%. For the same compound, the remaining activity at 25 µM (HEK-293T, read-out: WIZ Amax) came out at 47%.

With `C[C@H]1C[C@H](Cc2ccn3ncc(N4CCC(=O)NC4=O)c3c2)CCN1CC1CCCC1` [Example 144], the DC50 was found to be 8 nM. For the same compound, under setting [1], the Dmax at 25 µM was determined as 87%. In addition, for the setting “HEK-293T, read-out: WIZ Amax”, the remaining activity at 25 µM amounted to 13%.

For the compound `C[C@H]1CN(CC2CCC2)CCN1Cc1ccn2ncc(N3CCC(=O)NC3=O)c2c1` [Example 224], the DC50 is 854 nM. Further, under setting [1], the Dmax at 25 µM is 45%. For the same compound, the remaining activity at 25 µM (HEK-293T, read-out: WIZ Amax) was determined as 55%.

Regarding `O=C1CCN(c2cnn3ccc(CN4CCN(Cc5ccc(F)cc5)CC4)cc23)C(=O)N1` [Example 168], the DC50 was 127 nM. Also, the Dmax at 25 µM under setting [1] worked out at 56%. The remaining activity at 25 µM (HEK-293T, read-out: WIZ Amax) came to 44%.

`O=C1CCN(c2cnn3ccc(CN4CCN(CCC5CCCCC5)CC4)cc23)C(=O)N1` [Example 187, 1-(5-((4-(2-cyclohexylethyl)piperazin-1-yl)methyl)pyrazolo[1,5-a]pyridin-3-yl)dihydropyrimidine-2,4(1H,3H)-dione]: the DC50 came out at 20 nM. The Dmax at 25 µM under setting [1] stood at 80%. The remaining activity at 25 µM (HEK-293T, read-out: WIZ Amax) is 20%.

`O=C1CCN(c2cnn3ccc(CC4CCN(S(=O)(=O)C5CCCC5)CC4)cc23)C(=O)N1` [Example 82]: the DC50 was determined as 33 nM. Also, the Dmax at 25 µM under setting [1] came out at 90%. Besides, the remaining activity at 25 µM (HEK-293T, read-out: WIZ Amax) came to 10%.

For `CC(C)CN1[C@@H]2CC[C@H]1CC(Cc1ccn3ncc(N4CCC(=O)NC4=O)c3c1)C2` (stereo partly drawn) [Example 67, 1-(5-(((1R,5S)-8-isobutyl-8-azabicyclo[3.2.1]octan-3-yl)methyl)pyrazolo[1,5-a]pyridin-3-yl)dihydropyrimidine-2,4(1H,3H)-dione], the DC50 came out at 561 nM. The Dmax at 25 µM under setting [1] is 61%. Also, the remaining activity at 25 µM (HEK-293T, read-out: WIZ Amax) turned out to be 39%.

As for `C[C@@H]1CN(Cc2ccn3ncc(N4CCC(=O)NC4=O)c3c2)CCN1CC1CCCCC1` [Example 214], the DC50 turned out to be 151 nM. The Dmax at 25 µM under setting [1] came to 65%. In addition, the remaining activity at 25 µM (HEK-293T, read-out: WIZ Amax) was found to be 35%.

On to `CC1(C)CN(Cc2ccn3ncc(N4CCC(=O)NC4=O)c3c2)CCN1CC1CCOCC1` [Example 232, 1-(5-((3,3-dimethyl-4-((tetrahydro-2H-pyran-4-yl)methyl)piperazin-1-yl)methyl)pyrazolo[1,5-a]pyridin-3-yl)dihydropyrimidine-2,4(1H,3H)-dione], for which the DC50 is 206 nM. Also, under setting [1], the Dmax at 25 µM amounted to 48%. In addition, the remaining activity at 25 µM (HEK-293T, read-out: WIZ Amax) is 52%.

On to `CC(C)(F)CN1CCN(Cc2ccn3ncc(N4CCC(=O)NC4=O)c3c2)CC1` [Example 169], for which the DC50 was found to be 326 nM. Moreover, under setting [1], the Dmax at 25 µM was found to be 55%. Besides, under “HEK-293T, read-out: WIZ Amax”, the remaining activity at 25 µM was determined as 45%.

Turning to `C[C@H]1CN(Cc2ccn3ncc(N4CCC(=O)NC4=O)c3c2)CCN1CC1CC(F)(F)C1` [Example 205], the DC50 was determined as 24 nM. For the same compound, the Dmax at 25 µM under setting [1] amounted to 82%. Further, for the setting “HEK-293T, read-out: WIZ Amax”, the remaining activity at 25 µM was 18%.

Consider `O=C1CCN(c2cnn3ccc(CN4CCN(CC5CCCCCC5)CC4)cc23)C(=O)N1` [Example 158], for which the DC50 stood at 25 nM. Also, the Dmax at 25 µM under setting [1] is 82%. Besides, under “HEK-293T, read-out: WIZ Amax”, the remaining activity at 25 µM came out at 18%.

Turning to `CC(C)(CN1CCC(Cc2ccn3ncc(N4CCC(=O)NC4=O)c3c2)CC1)C(F)(F)F` [Example 62, 1-(5-((1-(3,3,3-trifluoro-2,2-dimethylpropyl)piperidin-4-yl)methyl)pyrazolo[1,5-a]pyridin-3-yl)dihydropyrimidine-2,4(1H,3H)-dione], the DC50 turned out to be 49 nM. Under setting [1], the Dmax at 25 µM is 73%. Under “HEK-293T, read-out: WIZ Amax”, the remaining activity at 25 µM came to 27%.

For the compound `C[C@H]1CN(Cc2ccn3ncc(N4CCC(=O)NC4=O)c3c2)CCN1CC(F)F` [Example 327, (S)-1-(5-((4-(2,2-difluoroethyl)-3-methylpiperazin-1-yl)methyl)pyrazolo[1,5-a]pyridin-3-yl)dihydropyrimidine-2,4(1H,3H)-dione], the DC50 amounted to 653 nM. For the same compound, the Dmax at 25 µM under setting [1] was determined as 54%. Further, the remaining activity at 25 µM (HEK-293T, read-out: WIZ Amax) was 46%.

On to `CC(C)S(=O)(=O)N1CCN(Cc2ccn3ncc(N4CCC(=O)NC4=O)c3c2)CC1` [Example 185, 1-(5-((4-(isopropylsulfonyl)piperazin-1-yl)methyl)pyrazolo[1,5-a]pyridin-3-yl)dihydropyrimidine-2,4(1H,3H)-dione], for which the DC50 was 582 nM. In addition, the Dmax at 25 µM under setting [1] is 47%. The remaining activity at 25 µM (HEK-293T, read-out: WIZ Amax) was found to be 53%.

As for `C[C@H]1C[C@H](Cc2ccn3ncc(N4CCC(=O)NC4=O)c3c2)CCN1C(=O)N(C)C` [Example 294], the DC50 worked out at 18 nM. In addition, under setting [1], the Dmax at 25 µM turned out to be 81%. Further, under “HEK-293T, read-out: WIZ Amax”, the remaining activity at 25 µM was found to be 19%.

The values above are taken from US11787785B2 (NOVARTIS AG, priority 2021, dated 2023).
